Read-outs that look alike come from different tables or passages of the source.
Tests used:
[1] = system: red blood cells
Description: Methods for determining ATP, 2,3-DPG, glucose, hemoglobin, hemolysis, and potassium are available in the art. See for example, Davey et al., Transfusion, 32:525-528 (1992), the disclosure of which is incorporated herein. Methods for determining red blood cell function are also described in Greenwalt et al., Vox Sang, 58:94-99 (1990); Hogman et al., Vox Sang, 65:271-278 (1993); and Beutler et al., Blood, Vol. 59 (1982) the disclosures of which are incorporated herein by reference. For example, intracellular ATP and intracellular 2,3-DPG are measured using a Sigma ATP kit or 2,3-DPG kit (Sigma, St. Louis, Mo.). The ATP kit is used following Sigma procedure No. 366-UV, the disclosure of which is hereby incorporated by reference. […] The extracellular pH is measured by centrifuging the cells at 4° C. for 15 minutes at 12,000×g and removing the supernatant, for which the pH is measured using a standard pH meter at room temperature (e.g. Beckman, Epoxy Calomel electrode). For the intracellular pH, the remaining pellet is capped in the centrifuge tube and stored at about −80° C. for at least 2 hours. This is then lysed by the addition of deionized water. […] Measurements can be made shortly after treatment and as a function of post treatment storage, for example storage for up to 42 days.
Full units of red cell concentrates (Interstate Blood Bank, Inc., Memphis, Tenn.) were leukoreduced. A volume of 200 mL of this RCC (80% hematocrit) was mixed with 94 mL of Erythrosol or 100 mL of Adsol (Baxter Healthcare Corp., Deerfield, Ill.) as control (unit 1). A volume of 20 mL 8% dextrose was used to dissolve PIC-1 (mg) and acid glutathione (mg) and added to one unit to provide 0.2 mM PIC-1 and 2 mM glutathione (unit 2). […] For the glutathione, 1.2 mL of 10 N NaOH was added (2 equivalents). The PIC-1 was mixed with the unit, followed 1 minute later (unit 3) or 5 minutes later (unit 4) by glutathione. For unit 5, neutralized glutathione was mixed first, followed 10 minutes later by the PIC-1. […] All units were mixed by grasping the ends of the blood bag and mixing in a FIG. 8 motion 30 times. These were then incubated at room temperature for 20 hours total. A compound adsorption device (CAD), comprising a polymeric resin contained within a mesh pouch, was used for all but the control sample. This device is intended to remove residual PIC-1, PIC-1 breakdown products, and glutathione from the samples. Samples were incubated for 8 hours, then transferred to a second blood bag containing the CAD and incubated for an additional 12 hours. Following the room temperature incubation, samples were transferred to a refrigerator (4° C.) and stored up to 43 days. Aliquots were removed from each unit 12 hours and 20 hours post mixing, and every week thereafter. Aliquots were analyzed for total hemoglobin, pH, intracellular ATP, plasma hemoglobin, potassium, extracellular glucose and extracellular lactate.

[2] = system: Serratia marcescens; format: cell-based
[3] = 0.2 mM PIC-1+2 mM glutathione, 0.9 eq base, formulated together
[4] = 0.2 mM PIC-1+20 mM glutathione, 0 eq base, formulated together
[5] = 0.2 mM PIC-1+20 mM glutathione, 0.9 eq base, formulated together (PIC-1 precipitated)
[6] = 0.2 mM PIC-1+20 mM glutathione, 1.5 eq base, formulated together (PIC-1 precipitated)
[7] = 0.2 mM PIC-1+20 mM glutathione, 2 eq base, formulated together (PIC-1 precipitated)
[8] = 0.2 mM PIC-1 first, 20 mM glutathione+2 eq base shortly after (sequential)
[9] = Table 2B: 0.2 mM PIC-1, then 20 mM glutathione+2 eq base after 1 min
[10] = Table 2B: 0.2 mM PIC-1, then 20 mM glutathione+2 eq base after 5 min
[11] = Table 2B: 0.2 mM PIC-1, then 20 mM glutathione+2 eq base after 10 min
[12] = Table 2B: 0.2 mM PIC-1, then 20 mM glutathione+2 eq base after 20 min
[13] = Table 2B: 0.2 mM PIC-1 and 2 mM glutathione, 0 eq base, simultaneous
[14] = Table 2B: 0.2 mM PIC-1 and 20 mM glutathione, 0 eq base, simultaneous
[15] = Table 2B: 20 mM glutathione+2 eq base, then 0.2 mM PIC-1 after 1 min
[16] = Table 2B: 20 mM glutathione+2 eq base, then 0.2 mM PIC-1 after 10 min
[17] = Table 5A: 0.2 mM PIC-1, then 20 mM GSH+2 eq base after 1 min
[18] = Table 5A: 10 mM Cys+10 mM GSH, 2 eq base each, then 0.2 mM PIC-1 after 10 min
[19] = Table 5A: 15 mM Cys+5 mM GSH, 2 eq base each, then 0.2 mM PIC-1 after 10 min
[20] = Table 5A: 20 mM Cys+2 eq base, then 0.2 mM PIC-1 after 10 min
[21] = Table 5A: 20 mM GSH+2 eq base, then 0.2 mM PIC-1 after 10 min
[22] = Table 5B: 0.2 mM PIC-1+2 mM GSH, 0 eq base, no delay
[23] = Table 5B: 5 mM Cys+2 eq base, then 0.2 mM PIC-1 after 5 min
[24] = Table 5B: 5 mM Cys+2 eq base, then 0.2 mM PIC-1 after 10 min
[25] = Table 5B: 5 mM Cys+2 eq base, then 0.2 mM PIC-1 after 20 min
[26] = Table 5B: 10 mM Cys+2 eq base, then 0.2 mM PIC-1 after 10 min
[27] = Table 5B: 15 mM Cys+2 eq base, then 0.2 mM PIC-1 after 10 min
[28] = Table 5B: 20 mM Cys+2 eq base, then 0.2 mM PIC-1 after 5 min
[29] = Table 5B: 20 mM Cys+2 eq base, then 0.2 mM PIC-1 after 10 min
[30] = Table 5B: 20 mM GSH+2 eq base, then 0.2 mM PIC-1 after 10 min
[31] = Table 5B: […] Cys+2 eq base, then 0.2 mM PIC-1 after 10 min

O=C(CCNc1c2ccccc2nc2ccccc12)OCCN(CCCl)CCCl [PIC-1]
Percent Hemolysis ([1]; 16B day 0, sample 2: standard 0.2 mM PIC-1+2 mM GSH): 0.22% | Percent Hemolysis ([1]; 16B day 0, sample 3: 0.2 mM PIC-1, 1' delay, 20 mM GSH+2 eq base): 0.19% | Percent Hemolysis ([1]; 16B day 0, sample 4: 0.2 mM PIC-1, 5' delay, 20 mM GSH+2 eq base): 0.19% | Percent Hemolysis ([1]; 16B day 0, sample 5: 20 mM GSH+2 eq base, 10' delay, 0.2 mM PIC-1): 0.19% | Percent Hemolysis ([1]; 16B day 0.5, sample 2: standard 0.2 mM PIC-1+2 mM GSH): 0.24% | Percent Hemolysis ([1]; 16B day 0.5, sample 3: 0.2 mM PIC-1, 1' delay, 20 mM GSH+2 eq base): 0.16% | Percent Hemolysis ([1]; 16B day 0.5, sample 4: 0.2 mM PIC-1, 5' delay, 20 mM GSH+2 eq base): 0.25% | Percent Hemolysis ([1]; 16B day 0.5, sample 5: 20 mM GSH+2 eq base, 10' delay, 0.2 mM PIC-1): 0.24% | Percent Hemolysis ([1]; 16B day 0.8, sample 2: standard 0.2 mM PIC-1+2 mM GSH): 0.46% | Percent Hemolysis ([1]; 16B day 0.8, sample 3: 0.2 mM PIC-1, 1' delay, 20 mM GSH+2 eq base): 0.40% | Percent Hemolysis ([1]; 16B day 0.8, sample 4: 0.2 mM PIC-1, 5' delay, 20 mM GSH+2 eq base): 0.48% | Percent Hemolysis ([1]; 16B day 0.8, sample 5: 20 mM GSH+2 eq base, 10' delay, 0.2 mM PIC-1): 0.47% | Percent Hemolysis ([1]; 16B day 7, sample 2: standard 0.2 mM PIC-1+2 mM GSH): 0.62% | Percent Hemolysis ([1]; 16B day 7, sample 3: 0.2 mM PIC-1, 1' delay, 20 mM GSH+2 eq base): 0.35% | Percent Hemolysis ([1]; 16B day 7, sample 4: 0.2 mM PIC-1, 5' delay, 20 mM GSH+2 eq base): 0.52% | Percent Hemolysis ([1]; 16B day 7, sample 5: 20 mM GSH+2 eq base, 10' delay, 0.2 mM PIC-1): 0.57% | Percent Hemolysis ([1]; 16B day 14, sample 2: standard 0.2 mM PIC-1+2 mM GSH): 0.69% | Percent Hemolysis ([1]; 16B day 14, sample 3: 0.2 mM PIC-1, 1' delay, 20 mM GSH+2 eq base): 0.50% | Percent Hemolysis ([1]; 16B day 14, sample 4: 0.2 mM PIC-1, 5' delay, 20 mM GSH+2 eq base): 0.52% | Percent Hemolysis ([1]; 16B day 14, sample 5: 20 mM GSH+2 eq base, 10' delay, 0.2 mM PIC-1): 0.55% | Percent Hemolysis ([1]; 16B day 22, sample 2: standard 0.2 mM PIC-1+2 mM GSH): 0.87% | Percent Hemolysis ([1]; 16B day 22, sample 3: 0.2 mM PIC-1, 1' delay, 20 mM GSH+2 eq base): 0.59% | Percent Hemolysis ([1]; 16B day 22, sample 4: 0.2 mM PIC-1, 5' delay, 20 mM GSH+2 eq base): 0.62% | Percent Hemolysis ([1]; 16B day 22, sample 5: 20 mM GSH+2 eq base, 10' delay, 0.2 mM PIC-1): 0.63% | Percent Hemolysis ([1]; 16B day 28, sample 2: standard 0.2 mM PIC-1+2 mM GSH): 0.86% | Percent Hemolysis ([1]; 16B day 28, sample 3: 0.2 mM PIC-1, 1' delay, 20 mM GSH+2 eq base): 0.63% | Percent Hemolysis ([1]; 16B day 28, sample 4: 0.2 mM PIC-1, 5' delay, 20 mM GSH+2 eq base): 0.64% | Percent Hemolysis ([1]; 16B day 28, sample 5: 20 mM GSH+2 eq base, 10' delay, 0.2 mM PIC-1): 0.65% | Percent Hemolysis ([1]; 16B day 35, sample 2: standard 0.2 mM PIC-1+2 mM GSH): 0.99% | Percent Hemolysis ([1]; 16B day 35, sample 3: 0.2 mM PIC-1, 1' delay, 20 mM GSH+2 eq base): 0.74% | Percent Hemolysis ([1]; 16B day 35, sample 4: 0.2 mM PIC-1, 5' delay, 20 mM GSH+2 eq base): 0.76% | Percent Hemolysis ([1]; 16B day 35, sample 5: 20 mM GSH+2 eq base, 10' delay, 0.2 mM PIC-1): 0.71% | Percent Hemolysis ([1]; 16B day 43, sample 2: standard 0.2 mM PIC-1+2 mM GSH): 1.17% | Percent Hemolysis ([1]; 16B day 43, sample 3: 0.2 mM PIC-1, 1' delay, 20 mM GSH+2 eq base): 0.82% | Percent Hemolysis ([1]; 16B day 43, sample 4: 0.2 mM PIC-1, 5' delay, 20 mM GSH+2 eq base): 0.90% | Percent Hemolysis ([1]; 16B day 43, sample 5: 20 mM GSH+2 eq base, 10' delay, 0.2 mM PIC-1): 0.83% | Log S. marcescens reduction [2, 3]: 4.27 Log | Log S. marcescens titer [2, 3]: 2.8 Log | Log S. marcescens reduction [2, 4]: 2.40 Log | Log S. marcescens titer [2, 4]: 4.6 Log | Log S. marcescens reduction [2, 5]: 2.26 Log | Log S. marcescens titer [2, 5]: 4.8 Log | Log S. marcescens reduction [2, 6]: 1.66 Log | Log S. marcescens titer [2, 6]: 5.4 Log | Log S. marcescens reduction [2, 7]: 0.76 Log | Log S. marcescens titer [2, 7]: 6.3 Log | Log S. marcescens reduction [2, 8]: 3.02 Log | Log S. marcescens titer [2, 8]: 4.0 Log | Log S. marcescens reduction [2, 9]: 3.36 Log | Log S. marcescens titer [2, 9]: 3.40 Log | Log S. marcescens reduction [2, 10]: 3.89 Log | Log S. marcescens titer [2, 10]: 2.87 Log | Log S. marcescens reduction [2, 11]: 4.96 Log | Log S. marcescens titer [2, 11]: 1.80 Log | Log S. marcescens reduction [2, 12]: 6.76 Log | Log S. marcescens titer [2, 12]: 0.00 Log | Log S. marcescens reduction [2, 13]: 5.25 Log | Log S. marcescens titer [2, 13]: 1.51 Log | Log S. marcescens reduction [2, 14]: 0.71 Log | Log S. marcescens titer [2, 14]: 6.05 Log | Log S. marcescens reduction [2, 15]: 3.66 Log | Log S. marcescens titer [2, 15]: 3.10 Log | Log S. marcescens reduction [2, 16]: 3.68 Log | Log S. marcescens titer [2, 16]: 3.08 Log | Log S. marcescens reduction [2, 17]: 2.7 Log | Log S. marcescens titer [2, 17]: 4.8 Log | Log S. marcescens reduction [2, 18]: 3.0 Log | Log S. marcescens titer [2, 18]: 4.5 Log | Log S. marcescens reduction [2, 19]: 3.7 Log | Log S. marcescens titer [2, 19]: 3.8 Log | Log S. marcescens reduction [2, 20]: 3.1 Log | Log S. marcescens titer [2, 20]: 4.4 Log | Log S. marcescens reduction [2, 21]: 3.4 Log | Log S. marcescens titer [2, 21]: 4.1 Log | Log S. marcescens reduction [2, 22]: 4.1 Log | Log S. marcescens titer [2, 22]: 3.5 Log | Log S. marcescens reduction [2, 23]: 3.2 Log | Log S. marcescens titer [2, 23]: 4.4 Log | Log S. marcescens reduction [2, 24]: 3.2 Log | Log S. marcescens titer [2, 24]: 4.4 Log | Log S. marcescens reduction [2, 25]: 2.9 Log | Log S. marcescens titer [2, 25]: 4.7 Log | Log S. marcescens reduction [2, 26]: 2.7 Log | Log S. marcescens titer [2, 26]: 4.9 Log | Log S. marcescens reduction [2, 27]: 3.1 Log | Log S. marcescens titer [2, 27]: 4.5 Log | Log S. marcescens reduction [2, 28]: 3.2 Log | Log S. marcescens titer [2, 28]: 4.4 Log | Log S. marcescens reduction [2, 29]: 3.0 Log | Log S. marcescens titer [2, 29]: 4.6 Log | Log S. marcescens reduction [2, 30]: 3.2 Log | Log S. marcescens titer [2, 30]: 4.4 Log | Log S. marcescens reduction [2, 31]: 3.7 Log | Log S. marcescens titer [2, 31]: 3.9 Log | log inactivation ([2]; all conditions of Tables 5A, 5B, 5C (cysteine and/or glutathione, 0.2 mM PIC-1)): at least 3 log | inactivation difference from the standard condition ([2]; cysteine or glutathione quenching, Tables 5A-5C): 1-1.5 log
